Here are results for five compounds from patent US20250195498A1, “INHIBITOR OF CELLULAR PURINE NUCLEOTIDE SALVAGE PATHWAY ENZYME FOR USE IN THE TREATMENT AND/OR PREVENTION OF HELICOBACTER PYLORI INFECTION AND/OR DISEASE ASSOCIATED WITH SUCH INFECTION AND PHARMACEUTICAL COMPOSITION COMPRISING THE SAME” (UNIWERSYTET WARSZAWSKI, priority 2022, published 2025).

Values after ≈ are worked out from the molar mass of the structure shown. Values joined by “and” are separate entries in the source; they are usually repeats but may differ in a detail not shown here. Equal values may be shown once. Read-outs that look alike come from different tables or passages of the source. Marks after values point to notes of the source that are not given here.

For one assay, the system named is H. pylori. To be noted: MTZ according to EUCAST, 2021, kanamycin according to Irie et al., 1997, cited from earlier work.
Another assay concerns H. pylori strain 26695. Nature of the assay: Growth curve method / MIC in liquid culture, strain 26695. It is filed as cell-based, Helicobacter pylori. To be noted: strain 26695; for MIC: read-out: MIC; for inhibition of bacterial growth: concentrations up to 5 mM. The method, then: (§1) The representative PNP inhibitor from H. pylori included in this study was immucillin A. The experiment was conducted using the growth curve method (two-fold serial dilutions in liquid medium). The tested H. pylori strains were cultured in Petri dishes with BHI solid medium supplemented with 10% FBS and 1% H. pylori Selective Supplement antibiotic kit, in anaerostats under microaerophilic conditions (5% 02, 10% CO2, 85% N2) at 37° C. for 3 days. Liquid culture of H. pylori was conducted overnight with shaking at 37° C. under microaerophilic conditions in BHI medium supplemented with 10% FBS and 1% H. pylori Selective Supplement antibiotic kit. Subsequently, for the essential experiment of determining the minimum inhibitory concentration (MIC), double strengthened liquid BHI medium was prepared, that is, supplemented with 20% FBS and a 2% set of H. pylori Selective Supplement antibiotics.
(§2) Bacterial proliferation inhibition experiments were carried out in 24-deep-well 2 ml flat-bottomed plates at a solution volume per well of 0.5 ml. In a single well, double strengthened (relative to the concentration planned for testing) solutions of the test inhibitor and double strengthened liquid BHI medium inoculated with H. pylori (10^4-10^5 CFU/ml in the final volume in the well, corresponding to the optical density of the culture OD600=0.05) were mixed together in a 1:1 ratio.
(§3) Kanamycin at a concentration of 25 μg/ml (Irie et al., 1997) was used as a positive control, while Mili-Q deionized water and BHI medium not inoculated with bacteria were used as negative controls. Plates were shaken at 37° C., under microaerophilic conditions. […] After 24 hours, the OD600 of samples containing the negative control, i.e. with Mili-Q deionized water, was about 1.2-1.4, corresponding to a bacterial concentration of about […].
(§4) In addition, the method proposed by Knezevic et al. (2018) was used to check whether the observed OD600 was from live bacterial cells. For this purpose, an equal volume of Christensen's double strength urea broth (that is, containing twice the concentration of all components) was added to the wells after incubation, and the plates were additionally incubated for 4 hours in an oxygen atmosphere at 37° C. During incubation, in wells with urease produced by live bacteria, urea is converted to ammonia and carbon dioxide, changing the pH of the solution and thus the colour of the phenol red indicator contained in the medium (from orange to purple).
(§5) All experiments were performed in triplicate.
The experiments were carried out using the growth curve method as described in Example 3, and the results obtained for two of the compounds tested are shown in FIG. 5. As the water solubility of the compounds tested, with the exception of 2,6-diCl-Pu, is relatively poor, two experiments were carried out: the first with the maximum concentration possible under the experimental conditions in aqueous solution with a small admixture of DMSO, and the second with higher concentrations that led to partial precipitation of the compound.
The antibacterial activity of two compounds, mefloquine (in the form of hydrochloride) and quinine, described in the literature as potent in vitro inhibitors of the PNP enzyme from Plasmodium falciparum (Dziekan et al., 2019), was tested. Using a two-fold serial dilution method in liquid medium (as described in Example 3), the MIC values for mefloquine and quinine were determined against clinical H. pylori strains resistant to MTZ, CLR and MTZ+CLR (M26, M91, M92 and M93), as well as the reference H. pylori strain 26695. Four clinical H. pylori strains isolated from adults, from primary infections (the subjects had never previously been treated against H. pylori infection) were tested. These strains come from the collection of the Department of Microbiology of the Medical University of Wroclaw and were obtained due to collaboration with Prof. Grażyna Gościniak, MD, PhD. […]

Assay [1] has as its system H. pylori strain M91 (MTZ + CLR resistant). Nature of the assay: Growth curve method / MIC, resistant strain M91. It is filed as cell-based, Helicobacter pylori. To be noted: for MIC: strain M91, MTZ + CLR resistant. The procedure: as §1, §2, §3, §4, §5
(§6) The antibacterial activity of two compounds, mefloquine (in the form of hydrochloride) and quinine, described in the literature as potent in vitro inhibitors of the PNP enzyme from Plasmodium falciparum (Dziekan et al., 2019), was tested. Using a two-fold serial dilution method in liquid medium (as described in Example 3), the MIC values for mefloquine and quinine were determined against clinical H. pylori strains resistant to MTZ, CLR and MTZ+CLR (M26, M91, M92 and M93), as well as the reference H. pylori strain 26695. Four clinical H. pylori strains isolated from adults, from primary infections (the subjects had never previously been treated against H. pylori infection) were tested. These strains come from the collection of the Department of Microbiology of the Medical University of Wroclaw and were obtained due to collaboration with Prof. Grażyna Gościniak, MD, PhD. The tested compounds belong to organic substances and are soluble in DMSO. The maximum tested concentration of quinine in H. pylori culture was 0.56 mM, and that of mefloquine was 2.25 mM. […] On each occasion, the effect of DMSO alone on the growth of the H. pylori strains tested was also checked. […] Kanamycin was used as a positive control and Mili-Q deionised water as a negative control. All experiments were carried out in triplicate. […]

For assay [2], the system named is H. pylori strain M93 (MTZ resistant). Nature of the assay: Growth curve method / MIC, resistant strain M93. In kind it is cell-based, Helicobacter pylori. To be noted: for MIC: strain M93, MTZ resistant. The method, then: as §1, §2, §3, §4, §5, §6
Assay [3] deals with H. pylori strain M26 (MTZ + CLR resistant). The experiment in a line: Growth curve method / MIC, resistant strain M26. It is filed as cell-based, Helicobacter pylori. To be noted: for MIC: strain M26, MTZ + CLR resistant. The method, then: as §1, §2, §3, §4, §5, §6
Assay [4] concerns H. pylori strain M92 (CLR resistant). Nature of the assay: Growth curve method / MIC, resistant strain M92. It is filed as cell-based, Helicobacter pylori. Conditions: for MIC: strain M92, CLR resistant. The method, then: as §1, §2, §3, §4, §5, §6
Another assay relates to H. pylori strain N6. The experiment in a line: Growth curve method / MIC, strain N6. In kind it is cell-based, Helicobacter pylori. Conditions: strain N6; concentrations up to 5 mM. The procedure: as §1, §2, §3, §4, §5
(§7) Inhibition by PLP and its metabolic precursors of the growth of H. pylori strains: 26695, N6 and P12 in culture was investigated using the growth curve method as described in Example 3. From these experiments, the minimum inhibitory concentration was determined as the lowest concentration of a compound that inhibits the visible growth of the bacteria, compared to growth in control samples without the tested compounds. All experiments were carried out in triplicate.

The next assay has as its system H. pylori strain P12. The experiment in a line: Growth curve method / MIC, strain P12. It is filed as cell-based, Helicobacter pylori. Conditions: strain P12; concentrations up to 5 mM. The procedure: as §1, §2, §3, §4, §5, §7
Where [5] appears, read: Helicobacter pylori, read-out: MIC.
Where [6] appears, read: listed as Mefloquine (hydrochloride).
[7] abbreviates: listed as Mefloquine (hydrochloride), read-out: MIC.

Consider `Cc1ncc([N+](=O)[O-])n1CCO` [Metronidazole, metronidazole], for which the “MIC (literature)” value is 8 ^f μg/ml and 47 μM with H. pylori; 47 μM and 8 μg/ml with H. pylori (listed as MTZ). In the assay with H. pylori strain 26695 (Helicobacter pylori, metronidazole 12 μM (2 μg/ml), not maximum solubility, read-out: % inhibition of H. pylori cell cultures), the inhibition at 12 µM lay within 89 to 92%.
Take `OC(c1cc(C(F)(F)F)nc2c(C(F)(F)F)cccc12)C1CCCCN1` (stereo not shown) [mefloquine]: the MIC in assay [1] (setting [5]) is 50 µM and 21 µg/mL; in assay [1] (setting [6]) it was “(21 μg/ml)”; in assay [1] (setting [7]), 50 µM; in the assay on H. pylori strain 26695 (Helicobacter pylori), 50 µM and 21 µg/mL; in assay [2] (setting [5]), 35 µM and 14.5 µg/mL; in assay [2] (setting [6]), “(14.5 μg/ml)”. Moreover, the MIC in assay [2] (setting [7]) is 35 µM (≈ 13.2 µg/mL); in assay [3] (setting [5]), 35 µM and 14.5 µg/mL; in assay [3] (setting [6]), “(14.5 μg/ml)”; in assay [3] (setting [7]) it was 35 µM; in assay [4] (setting [5]), 40 µM and 17 µg/mL; in assay [4] (setting [6]) it was “(17 μg/ml)”. Besides, in assay [4] (setting [7]), the MIC is reported as 40 µM (≈ 15.1 µg/mL).
`Cc1ncc(CO)c(CN)c1O.Cl.Cl` [pyridoxamine dihydrochloride]: the “inhibition of bacterial growth” value in the assay on H. pylori strain 26695, with H. pylori strain N6 and in the assay on H. pylori strain P12 was “no inhibition of bacterial growth” throughout.
Turning to `Cc1ncc(CO)c(CO)c1O` [pyridoxine], the “inhibition of bacterial growth” value in the assay on H. pylori strain 26695, with H. pylori strain N6 and in the assay on H. pylori strain P12 was “no inhibition of bacterial growth” each time.
As for `C=C[C@H]1C[N@@]2CC[C@H]1C[C@H]2[C@H](O)c1ccnc2ccc(OC)cc12` [quinine], the MIC in assay [1] (setting [5]) is ≥ 560 µM and ≥ 182 µg/mL; in assay [1], ≥0.56 mM and (≥182 μg/ml); with H. pylori strain 26695 (Helicobacter pylori), ≥ 400 µM and ≥ 130 µg/mL; in assay [2] (setting [5]), ≥ 400 µM and ≥ 130 µg/mL; in assay [2], ≥0.4 mM and (≥130 μg/ml); in assay [3] (setting [5]) it was ≥ 400 µM and ≥ 130 µg/mL. The MIC in assay [3] was ≥0.4 mM and (≥130 μg/ml); in assay [4] (setting [5]) it was ≥ 400 µM and ≥ 130 µg/mL; in assay [4] it was ≥0.4 mM and (≥130 μg/ml). Besides, the inhibition at 400 µM in assay [1] (Helicobacter pylori, strain M91, quinine 0.4 mM, read-out: percentage of growth inhibition) amounted to 78%; in the assay with H. pylori strain 26695 (Helicobacter pylori, quinine 0.4 mM, read-out: percentage of growth inhibition) it was 91%; in assay [2] (Helicobacter pylori, strain M93, quinine 0.4 mM, read-out: percentage of growth inhibition) it was 91%; in assay [3] (Helicobacter pylori, strain M26, quinine 0.4 mM, read-out: percentage of growth inhibition), 87%; in assay [4] (Helicobacter pylori, strain M92, quinine 0.4 mM, read-out: percentage of growth inhibition), 76%. In assay [1] (Helicobacter pylori, strain M91, quinine 0.56 mM (highest tested), read-out: percentage of growth inhibition), the inhibition at 560 µM turned out to be 86%.

As usually defined, the inhibition is the relative decrease from the control value, in per cent. The MIC is the smallest concentration in the dilution series that meets the test's criterion for growth inhibition.
